A word on the IC50: it is the concentration needed to halve the response being measured.

This experiment deals with β-catenin-TCF-mediated reporter transcription activity in Colo 205 cells. Kind of experiment: Colo 205 reporter assay (TCF/LEF luciferase). It is filed as cell-based. The conditions noted are these: Homo sapiens, COLO 205, 5 h, Colo 205 TCF/LEF luciferase reporter, five hours after addition of compound; read-out: TCF reporter Colo205 IC50. The method, boiled down:
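Luciferase signal from a TCF/LEF-driven reporter, stably integrated in Colo 205 colon cancer cells, was measured 5 h after compound addition.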
On the technique in general: A reporter such as luciferase makes a cellular process visible.

On to `Cc1nc(N[C@H]2C[C@H](Nc3ccc(C(F)(F)F)cn3)C2)nc2c1NC(=O)[C@H](C(C)C)N2C` [Compound 533, (S)-7-isopropyl-4,8-dimethyl-2-((trans-3-((5-(trifluoromethyl)pyridin-2-yl)amino)cyclobutyl)amino)-7,8-dihydropteridin-6(5H)-one], for which the IC50 was in the range of 300 to 1000 nM.
Consider `Cc1nc(N[C@H]2C[C@@H](Nc3ccc(C(F)(F)F)cn3)C2)nc2c1NC(=O)[C@H](C(C)C)N2C` [Compound 534, (S)-7-isopropyl-4,8-dimethyl-2-((cis-3-((5-(trifluoromethyl)pyridin-2-yl)amino)cyclobutyl)amino)-7,8-dihydropteridin-6(5H)-one], for which the IC50 was less than 300 nM.
For `Cc1nc(N[C@H]2C[C@H](NCc3cc(F)c(F)c(F)c3)C2)nc2c1NC(=O)[C@H](C(C)C)N2C` [Compound 535, (S)-7-isopropyl-4,8-dimethyl-2-((trans-3-((3,4,5-trifluorobenzyl)amino)cyclobutyl)amino)-7,8-dihydropteridin-6(5H)-one], the IC50 was less than 300 nM.
In the case of `Cc1nc(N[C@H]2C[C@@H](NCc3cc(F)c(F)c(F)c3)C2)nc2c1NC(=O)[C@H](C(C)C)N2C` [Compound 536, (S)-7-isopropyl-4,8-dimethyl-2-((cis-3-((3,4,5-trifluorobenzyl)amino)cyclobutyl)amino)-7,8-dihydropteridin-6(5H)-one] it was less than 300 nM.
As to `Cc1nc(N[C@H]2C[C@H](NC(=O)N(C)C3CCC(F)(F)CC3)C2)nc2c1NC(=O)[C@H](C(C)C)N2C` [Compound 537, 1-(4,4-difluorocyclohexyl)-3-(trans-3-(((S)-7-isopropyl-4,8-dimethyl-6-oxo-5,6,7,8-tetrahydropteridin-2-yl)amino)cyclobutyl)-1-methylurea], the IC50 fell in the range of 1000 to 5000 nM.
In the case of `Cc1nc(N[C@H]2C[C@@H](NC(=O)N(C)C3CCC(F)(F)CC3)C2)nc2c1NC(=O)[C@H](C(C)C)N2C` [Compound 538, 1-(4,4-difluorocyclohexyl)-3-(cis-3-(((S)-7-isopropyl-4,8-dimethyl-6-oxo-5,6,7,8-tetrahydropteridin-2-yl)amino)cyclobutyl)-1-methylurea] it was 1000 to 5000 nM; in that of `Cc1nc(N[C@H]2C[C@@H](Nc3ccnc(C(F)(F)F)n3)C2)nc2c1NC(=O)[C@H](C(C)C)N2C` [Compound 539, (S)-7-isopropyl-4,8-dimethyl-2-((cis-3-((2-(trifluoromethyl)pyrimidin-4-yl)amino)cyclobutyl)amino)-7,8-dihydropteridin-6(5H)-one], 300 to 1000 nM.
In the case of `Cc1nc(N[C@H]2C[C@H](Nc3ccnc(C(F)(F)F)n3)C2)nc2c1NC(=O)[C@H](C(C)C)N2C` [Compound 540, (S)-7-isopropyl-4,8-dimethyl-2-((trans-3-((2-(trifluoromethyl)pyrimidin-4-yl)amino)cyclobutyl)amino)-7,8-dihydropteridin-6(5H)-one] it was 1000 to 5000 nM.
In the case of `Cc1nc(NC2CN(C(=O)C3CCC(F)(F)CC3)C2)nc2c1NC(=O)[C@H](C(C)C)N2C` [Compound 543, (S)-2-((1-(4,4-difluorocyclohexane-1-carbonyl)azetidin-3-yl)amino)-7-isopropyl-4,8-dimethyl-7,8-dihydropteridin-6(5H)-one], the IC50 was 1000 to 5000 nM.
In the case of `Cc1nc(NC2CN(C(=O)Cc3cc(F)c(F)c(F)c3)C2)nc2c1NC(=O)[C@H](C(C)C)N2C` [Compound 544, (S)-7-isopropyl-4,8-dimethyl-2-((1-(2-(3,4,5-trifluorophenyl)acetyl)azetidin-3-yl)amino)-7,8-dihydropteridin-6(5H)-one] it was less than 300 nM; in that of `Cc1nc(N[C@H]2CCc3nn(Cc4ccc(C(F)(F)F)nc4)cc32)nc2c1NC(=O)[C@H](C)N2C` [Compound 546, (7S)-4,7,8-trimethyl-2-(((S)-2-((6-(trifluoromethyl)pyridin-3-yl)methyl)-2,4,5,6-tetrahydrocyclopenta[c]pyrazol-4-yl)amino)-7,8-dihydropteridin-6(5H)-one], not below 5000 nM.
For the compound `Cc1nc(N[C@@H]2CCc3nn(Cc4ccc(C(F)(F)F)nc4)cc32)nc2c1NC(=O)[C@H](C)N2C` [Compound 547, (7S)-4,7,8-trimethyl-2-(((R)-2-((6-(trifluoromethyl)pyridin-3-yl)methyl)-2,4,5,6-tetrahydrocyclopenta[c]pyrazol-4-yl)amino)-7,8-dihydropteridin-6(5H)-one], the IC50 lay within 1000 to 5000 nM.
In the case of `Cc1nc(NC2CN(C(=O)c3ccc(F)cc3)C2)nc2c1NC(=O)[C@H](C(C)C)N2C` [Compound 548, (S)-2-((1-(4-fluorobenzoyl)azetidin-3-yl)amino)-7-isopropyl-4,8-dimethyl-7,8-dihydropteridin-6(5H)-one] it was 300 to 1000 nM; in that of `Cc1nc(NCc2cnn(Cc3ccc(Cl)nc3)c2)nc2c1NC(=O)[C@H](CC(C)C)N2C` [Compound 550, (S)-2-(((1-((6-chloropyridin-3-yl)methyl)-1H-pyrazol-4-yl)methyl)amino)-7-isobutyl-4,8-dimethyl-7,8-dihydropteridin-6(5H)-one], less than 300 nM.
In the case of `Cc1nc(N[C@H]2C[C@@H](Nc3cc(C(F)(F)F)ncn3)C2)nc2c1NC(=O)[C@H](C)N2C` [Compound 552, (S)-4,7,8-trimethyl-2-((cis-3-((6-(trifluoromethyl)pyrimidin-4-yl)amino)cyclobutyl)amino)-7,8-dihydropteridin-6(5H)-one] it was not below 5000 nM; in that of `Cc1nc(N[C@H]2C[C@H](NC(=O)Cn3ccc(C(F)(F)F)n3)C2)nc2c1NC(=O)[C@H](C(C)C)N2C` [Compound 554, N-(trans-3-(((S)-7-isopropyl-4,8-dimethyl-6-oxo-5,6,7,8-tetrahydropteridin-2-yl)amino)cyclobutyl)-2-(3-(trifluoromethyl)-1H-pyrazol-1-yl)acetamide], 1000 to 5000 nM.
In the case of `Cc1nc(N[C@H]2C[C@H](Nc3ccc(C(F)(F)F)nn3)C2)nc2c1NC(=O)[C@H](C(C)C)N2C` [Compound 555, (S)-7-isopropyl-4,8-dimethyl-2-((trans-3-((6-(trifluoromethyl)pyridazin-3-yl)amino)cyclobutyl)amino)-7,8-dihydropteridin-6(5H)-one] it was 1000 to 5000 nM; in that of `Cc1nc(N[C@H]2C[C@H](Nc3cnc(C(F)(F)F)cn3)C2)nc2c1NC(=O)[C@H](C(C)C)N2C` [Compound 558, (S)-7-isopropyl-4,8-dimethyl-2-((trans-3-((5-(trifluoromethyl)pyrazin-2-yl)amino)cyclobutyl)amino)-7,8-dihydropteridin-6(5H)-one], 1000 to 5000 nM.
For the compound `Cc1nc(N[C@H]2C[C@@H](NC(=O)Cc3ccc(C(F)(F)F)nc3)C2)nc2c1NC(=O)[C@H](C(C)C)N2C` [Compound 559, N-(cis-3-(((S)-7-isopropyl-4,8-dimethyl-6-oxo-5,6,7,8-tetrahydropteridin-2-yl)amino)cyclobutyl)-2-(6-(trifluoromethyl)pyridin-3-yl)acetamide], the concentration for half-maximal inhibition (IC50) lay in the range of 1000 to 5000 nM.
In the case of `Cc1nc(N[C@H]2C[C@H](NC(=O)Cc3ccc(C(F)(F)F)nc3)C2)nc2c1NC(=O)[C@H](C(C)C)N2C` [Compound 560, N-(trans-3-(((S)-7-isopropyl-4,8-dimethyl-6-oxo-5,6,7,8-tetrahydropteridin-2-yl)amino)cyclobutyl)-2-(6-(trifluoromethyl)pyridin-3-yl)acetamide] it was not below 5000 nM.
In the case of `Cc1nc(N[C@H]2C[C@@H](Nc3cc(C(F)(F)F)ccn3)C2)nc2c1NC(=O)[C@H](C(C)C)N2C` [Compound 561, (S)-7-isopropyl-4,8-dimethyl-2-((cis-3-((4-(trifluoromethyl)pyridin-2-yl)amino)cyclobutyl)amino)-7,8-dihydropteridin-6(5H)-one] it was less than 300 nM.
In the case of `Cc1nc(N[C@H]2C[C@@H](Nc3ccc(C(F)(F)F)cn3)C2)nc2c1NC(=O)[C@H](C)N2C` [Compound 562, (S)-4,7,8-trimethyl-2-((cis-3-((5-(trifluoromethyl)pyridin-2-yl)amino)cyclobutyl)amino)-7,8-dihydropteridin-6(5H)-one], the IC50 fell in the range of 300 to 1000 nM.
In the case of `Cc1nc(NCc2cnn(Cc3ccc(C(F)(F)F)nc3)c2)nc2c1NC(=O)[C@H](CC(C)C)N2C` [Compound 563, (S)-7-isobutyl-4,8-dimethyl-2-(((1-((6-(trifluoromethyl)pyridin-3-yl)methyl)-1H-pyrazol-4-yl)methyl)amino)-7,8-dihydropteridin-6(5H)-one], the IC50 was less than 300 nM.
In the case of `Cc1nc(NC2CN(C(=O)Nc3cc(F)c(F)c(F)c3)C2)nc2c1NC(=O)[C@H](C(C)C)N2C` [Compound 564, (7S)-3-((7-isopropyl-4,8-dimethyl-6-oxo-5,6,7,8-tetrahydropteridin-2-yl)amino)-N-(3,4,5-trifluorophenyl)azetidine-1-carboxamide] it was 1000 to 5000 nM; in that of `Cc1nc(NCc2cnn(Cc3ccc(Cl)nc3)c2)nc2c1NC(=O)[C@H](C1CCC1)N2C` [Compound 566, (7S)-2-(((1-((6-chloropyridin-3-yl)methyl)-1H-pyrazol-4-yl)methyl)amino)-7-cyclobutyl-4,8-dimethyl-7,8-dihydropteridin-6(5H)-one], less than 300 nM; in that of `Cc1nc(NCc2cnn(Cc3ccc(C(F)(F)F)nc3)c2)nc2c1NC(=O)[C@H](C1CCC1)N2C` [Compound 567, (7S)-7-cyclobutyl-4,8-dimethyl-2-(((1-((6-(trifluoromethyl)pyridin-3-yl)methyl)-1H-pyrazol-4-yl)methyl)amino)-7,8-dihydropteridin-6(5H)-one], less than 300 nM.
In the case of `CO[C@H](C)[C@H]1C(=O)Nc2c(C)nc(NC3CN(C(=O)c4cc(F)c(F)c(F)c4)C3)nc2N1C` [Compound 568, (S)-7-((R)-1-methoxyethyl)-4,8-dimethyl-2-((1-(3,4,5-trifluorobenzoyl)azetidin-3-yl)amino)-7,8-dihydropteridin-6(5H)-one] it was less than 300 nM; in that of `Cc1nc(N[C@H]2C[C@@H](Nc3nc(C(F)(F)F)nn3C)C2)nc2c1NC(=O)[C@H](C(C)C)N2C` [Compound 569, (S)-7-isopropyl-4,8-dimethyl-2-((cis-3-((1-methyl-3-(trifluoromethyl)-1H-1,2,4-triazol-5-yl)amino)cyclobutyl)amino)-7,8-dihydropteridin-6(5H)-one], 1000 to 5000 nM.

For the origin of these results see patent US20230312587A1, “PTERIDINONE COMPOUNDS AND USES THEREOF” (Vertex Pharmaceutical Incorporated, priority 2018, published 2023).
